# Biological target: T1, IDH1 (Homo sapiens, UniProt O75874)
# T1 construct: residues 1–414
# Assay: biolayer interferometry on recombinant IDH1 (repeat Kd […]); supported by DSF, CETSA, LC-MS/MS adduct at Cys297, enzyme activation EC50 […]
# Assay type: binding
# T1 sequence (O75874 whole entry, the tested form may be a part): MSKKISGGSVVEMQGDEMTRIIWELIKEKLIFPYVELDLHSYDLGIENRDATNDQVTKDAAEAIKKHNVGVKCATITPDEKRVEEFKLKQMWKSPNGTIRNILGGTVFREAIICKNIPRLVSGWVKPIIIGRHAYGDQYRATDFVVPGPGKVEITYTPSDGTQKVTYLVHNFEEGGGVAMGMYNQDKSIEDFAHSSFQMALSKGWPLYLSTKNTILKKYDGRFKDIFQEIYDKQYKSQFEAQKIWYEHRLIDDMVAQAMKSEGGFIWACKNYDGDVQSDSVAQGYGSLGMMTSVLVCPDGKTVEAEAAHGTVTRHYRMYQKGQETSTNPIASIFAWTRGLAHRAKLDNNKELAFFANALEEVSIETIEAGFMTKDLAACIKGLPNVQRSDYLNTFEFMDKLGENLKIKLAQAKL
smiles,measurement,value
"O=C(O)[C@H]1O[C@@H](Oc2cc3oc(-c4ccc(O)cc4)cc(=O)c3c(O)c2O)[C@H](O)[C@@H](O)[C@@H]1O [Scu, scutellarin]",Kd,11.5 µM
